Measurements from the supplement of paper PMC3974653.
Counter-ions that a name gives are not always drawn.

Tested on: MTT (mouse pheochromocytoma)
Experiment: IC50 of cell viability (ATP content)
Details: (24 or 48 h)
Method in brief: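 CellTiter-Glo ATP luminescence, read after 15 minutes, was used to assess MTT mouse pheochromocytoma cells treated for 24 or 48 hrs with library compounds (final 0.5 nM to 46 µM, 8 concentrations). The cells had been plated at 5 µl of 200,000 cells/ml per well in white 1536-well plates in DMEM with 5% FBS and 1% horse serum and cultured overnight at 37°C, 5% CO2. Normalisation set positive-control wells to 100% and DMSO wells to 0%. The IC50 was then determined by four-parameter logistic fitting.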

SMILES | IC50 of cell viability
O=C1c2ccccc2[S+](=O)([O-])N1CCCCN1CCN(c2ncccn2)CC1 [Ipsapirone] | > 46 µM
O.O.O.O.O.O.O.O=S(=O)([O-])[O-].[Co+2] [Cobalt sulfate heptahydrate] | > 46 µM
C/C=C/C=C/C(=O)O [Sorbic acid] | > 46 µM
O=C(O)c1cc(O)nc(O)n1 [Orotic acid] | > 46 µM
Nc1ccc(O)cc1 [4-Aminophenol] | > 46 µM
C#C[C@]1(OC(=O)CCCCCC)CC[C@H]2C3CCC4=CC(=O)CC[C@@H]4[C@H]3CC[C@@]21C (stereo partly drawn) [Noristerat] | > 46 µM
CCOC(=O)c1ccccc1O [ETHYL SALICYLATE] | > 46 µM
O=C1CC[C@H](C(=O)N[C@@H]2C[C@H]2c2ccccc2)N1 [ROLICYPRINUM] | > 46 µM
CC(C)[C@@]1(NC(=O)[C@@H]2C[C@@H]3c4cccc5[nH]cc(c45)C[C@H]3N(C)C2)O[C@@]2(O)[C@@H]3CCCN3C(=O)[C@H](Cc3ccccc3)N2C1=O [Dihydroergocristine] | > 46 µM
CC(C)=CCC/C(C)=C/CO [GERANIOL] | > 46 µM
C1CC[N@]2C[C@@H]3C[C@@H](CN4CCCC[C@H]34)[C@H]2C1 [Sparteine (-)] | > 46 µM
NCCCC(N)CC(=O)NC1CNC(=O)C(C2CC(O)NC(N)=N2)NC(=O)/C(=C/NC(N)=O)NC(=O)C(CO)NC(=O)C(CO)NC1=O (stereo not drawn) [VIOMYCIN SULFATE] | > 46 µM
CCC(=O)NCCC1CCc2ccc3c(c21)CCO3 (stereo not drawn) [RAMELTEON] | > 46 µM
CCCCc1nc(Cl)c(CO)n1Cc1ccc(-c2ccccc2-c2nnn[nH]2)cc1 [LOSARTAN] | > 46 µM
NC/1=N/C(=O)N(/C=C1)[C@H]2CO[C@H](CO)O2 [TROXACITABINE (Troxatyl)] | > 46 µM
CC[N+]1(CC)CCC(=C(c2ccccc2)c2ccccc2)C1C (stereo not drawn) [PRIFINIUM BROMIDE] | > 46 µM
Cc1cccc(CN2CCN([C@@H](c3ccccc3)c3ccc(Cl)cc3)CC2)c1 [Meclozine dihydrochloride] | > 46 µM
CCCCC/C=C/C/C=C/CCCCCCCC(=O)NC(C)c1ccccc1 (stereo not drawn) [MELINAMIDE] | > 46 µM
COC(=O)\C1=C(/C)N\C(=C(/[C@H]1C2=CC=CC3=NON=C23)C(=O)OC(C)C)C [Isradipine] | > 46 µM
O=c1[nH]c(=O)n([C@H]2C[C@H](O)[C@@H](CO)O2)cc1/C=C/Br [(E)-5-(2-Bromovinyl)-2'-deoxyuridine] | > 46 µM
[O-][n+]1cccc(CO)c1 [Mepiroxol] | > 46 µM
CCN1CCCC1CNC(=O)c1cc([S+](=O)([O-])CC)c(N)cc1OC (stereo not drawn) [Amisulpride] | > 46 µM
CC12CCC(=O)CC1CCC1C2CCC2(C)C1CCC2(C)O (stereo not drawn) [Mestanolone] | > 46 µM
Cc1ccc(O)cc1.Cc1cccc(O)c1.Cc1ccccc1O [m-Cresol and o-cresol and p-cresol mixture] | > 46 µM
Nc1ccc([N+](=O)[O-])cc1O [2-Amino-5-nitrophenol] | > 46 µM
C[C@@H]1C[C@@H](OC(=O)[C@@H](O)c2ccccc2)CC(C)(C)N1C [Eucatropine hydrochloride] | > 46 µM
O=C(O)Cc1cccc2ccccc12 [1-Naphthaleneacetic acid] | > 46 µM
O=C/1O[C@@]23CC(/C=C\C2=C1)N4CCCCC34 (stereo partly drawn) [SECURININE] | > 46 µM
